According to US20250059164A1, “IRAK DEGRADERS AND USES THEREOF” (Kymera Therapeutics, Inc., priority 2023, published 2025):

Target: T1, IRAK4 (Homo sapiens, UniProt Q9NWZ3)
T1 construct: endogenous in cells; host or cells: OCI-LY10
T1 sequence (Q9NWZ3 1-460): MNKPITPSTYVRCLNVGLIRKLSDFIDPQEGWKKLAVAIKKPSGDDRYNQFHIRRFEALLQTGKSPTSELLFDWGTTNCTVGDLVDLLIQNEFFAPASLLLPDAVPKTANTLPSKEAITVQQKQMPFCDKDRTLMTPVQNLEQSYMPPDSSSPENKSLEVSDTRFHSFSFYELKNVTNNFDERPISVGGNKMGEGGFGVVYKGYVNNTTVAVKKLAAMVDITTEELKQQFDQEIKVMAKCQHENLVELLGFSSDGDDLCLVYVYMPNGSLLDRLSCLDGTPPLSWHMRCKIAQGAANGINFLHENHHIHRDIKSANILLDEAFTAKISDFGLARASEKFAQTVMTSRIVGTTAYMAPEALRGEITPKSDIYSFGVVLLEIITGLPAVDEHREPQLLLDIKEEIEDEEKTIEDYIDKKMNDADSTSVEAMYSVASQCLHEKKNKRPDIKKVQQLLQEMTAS
Test: IRAK4 MSD degradation in OCI-LY10
Type: cell-based
Conditions: OCI-LY10 cells, 24 hrs, Meso Scale Discovery
Description: Degradation of IRAK4 in OCI-LY10 was quantitatively measured using Meso Scale Discovery technology. […] Compounds were then added to the assay plates with a final top concentration of 1 to 10 μM in a 1:3 dilution series with total of 8 doses. The assay plates were then incubated for 4 to 24 hours at 37° C. under 5% CO2. […] To prepare MSD assay plates (Meso Scale Discovery Catalog number L15XA-3), the plates were coated with 2 μg/mL capture antibody (mouse Anti-IRAK4 antibody [2H9], ab119942) in PBS, at 40 μL/well. […] Cell lysates were then added to MSD assay plates and the plates were incubated at room temperature for 1 hour. The plates were then washed 3 times with 150 μL/well TBST buffer and 25 μL/well primary detection antibody (rabbit Anti-IRAK4 antibody [Y279], from Abcam. Catalog number ab32511, 1 μg/mL). The assay plates were then incubated at room temperature for 1 hour, washed 3 times with 150 μL/well TBST buffer and 25 μL/well secondary detection antibody, SULFO-TAG anti-rabbit antibody were added (anti-rabbit antibody from Meso Scale Discovery, Catalog number R32AB-1, 1 μg/mL). The assay plates were then incubated at room temperature for 1 hour, washed 3 times with 150 μL/well TBST buffer, and 150 μL/well MSD reading buffer (Meso Scale Discovery catalog number R92TC-2) was added. The plates were then analyzed by a MSD reader (Meso Scale Discovery, Model Quick Plex SQ 120). The data was then analyzed by software Prism 7.0 from GraphPad and the dose-depended IRAK4 degradation were fit using a three-parameter logistic equation to calculate DC50.
The letter codes for IRAK4 DC50 include: A (<0.01 μM); B (0.01 to <0.1 μM); C (0.1 to 0.2 μM); D (>0.2 μM) and E (not tested).

| Compound | DC50 [nM] |
| --- | --- |
| COc1cc2nc(C3CCN(CC4(F)CCN(c5cccc6c5n(C)c(=O)n6C5CCC(=O)NC5=O)CC4)CC3)sc2cc1NC(=O)c1cncc(C#N)c1 (centres unmarked) [I-157] | > 200 |
| COc1cc2nn([C@H]3CC[C@H](CN4CC[C@@H](c5cccc6c5c(C)nn6C5CCC(=O)NC5=O)[C@H](F)C4)CC3)cc2cc1NC(=O)c1cncc(C#N)c1 (single isomer, unassigned) [I-265] | < 10 |
| CN(C[C@H]1CC[C@H](c2cn3cc(NC(=O)c4cncc(C(F)(F)F)n4)ccc3n2)CC1)[C@H]1CCN(c2cccc3c2n(C)c(=O)n3C2CCC(=O)NC2=O)C[C@H]1F (single isomer, unassigned) [I-285] | < 10 |
| CN(C[C@H]1C[C@@H](n2cc(NC(=O)c3cnn4ccc(N5C[C@H]6C[C@@H]5CO6)nc34)c(C(F)F)n2)C1)[C@H]1CCN(c2cccc3c2n(C)c(=O)n3C2CCC(=O)NC2=O)C[C@@H]1F (single isomer, unassigned) [I-4] | < 10 |
| Cn1c(=O)n(C2CCC(=O)NC2=O)c2cccc([C@@H]3CCN(C[C@H]4CC[C@H](n5cc6cc(NC(=O)c7cncc(C(F)(F)F)n7)ccc6n5)CC4)CC3(F)F)c21 (single isomer, unassigned) [I-179] | < 10 |
| Cn1c(=O)n(C2CCC(=O)NC2=O)c2cccc([C@H]3CCN(C[C@H]4CC[C@H](c5nc6cc(C(C)(C)O)c(NC(=O)c7cccc(C(F)(F)F)n7)cc6s5)CC4)C[C@@H]3F)c21 (some centres unmarked) [I-103] | < 10 |
| CN(C[C@H]1CC[C@H](n2cc3cc(NC(=O)c4cccc(C(F)(F)F)n4)ncc3n2)CC1)[C@@H]1CCN(c2cccc3c2n(C)c(=O)n3C2CCC(=O)NC2=O)C[C@@H]1F (some centres unmarked) [I-35] | < 10 |
| COc1cc2nn([C@H]3CC[C@H](CN(C)[C@@H]4CCN(c5cccc6c5n(C)c(=O)n6C5CCC(=O)NC5=O)C[C@H]4F)CC3)cc2cc1NC(=O)c1cccc(C(F)(F)F)n1 (some centres unmarked) [I-90] | < 10 |
| O=C1CCC(Nc2cccc(N3CC(CO[C@@H]4CCN(C[C@H]5CC[C@H](n6cc(NC(=O)c7cnn8ccc(N9C[C@H]%10C[C@@H]9CO%10)nc78)c(C(F)F)n6)CC5)C[C@@H]4F)C3)c2)C(=O)N1 (some centres unmarked) [I-5] | 10 to 100 |
| O=C1CCC(Nc2cccc(N3CCN(C[C@H]4CC[C@H](n5cc6cc(NC(=O)c7cccc(C(F)(F)F)n7)ncc6n5)CC4)CC3)c2)C(=O)N1 (some centres unmarked) [I-15] | > 200 |
| CN(C[C@H]1CC[C@H](n2cc(NC(=O)c3cnn4ccc(N5C[C@H]6C[C@@H]5CO6)nc34)c(C(F)F)n2)CC1)[C@@H]1CCN(c2cccc3c2n(C)c(=O)n3C2CCC(=O)NC2=O)C[C@@H]1F (single isomer, unassigned) [I-29] | < 10 |
| Cn1c(=O)n(C2CCC(=O)NC2=O)c2cccc([C@H]3CCN(C[C@H]4CC[C@H](c5nc6cc(C(C)(C)O)c(NC(=O)c7cncc(C(F)(F)F)n7)cc6o5)CC4)CC3(F)F)c21 (single isomer, unassigned) [I-328] | 10 to 100 |
| COc1ccc2c(c1N1CC3(CCN(C[C@H]4CC[C@H](n5cc6cc(NC(=O)c7cncc(C#N)c7)c(C(C)(C)O)cc6n5)CC4)CC3(F)F)C1)n(C)c(=O)n2[C@@H]1CCC(=O)NC1=O (single isomer, unassigned) [I-235] | < 10 |
| CN(C[C@H]1CC[C@H](n2cc3cc(NC(=O)c4cccc(C(F)(F)F)n4)c(C#N)cc3n2)CC1)[C@@H]1CCN(c2cccc3c2n(C)c(=O)n3C2CCC(=O)NC2=O)C[C@H]1F (some centres unmarked) [I-58] | < 10 |
| COc1cc2nc([C@H]3CC[C@H](CN4CC[C@H](c5cccc6c5n(C)c(=O)n6C5CCC(=O)NC5=O)[C@@H](F)C4)CC3)oc2cc1NC(=O)c1cccc(C(F)(F)F)n1 (single isomer, unassigned) [I-89] | > 200 |
| CC(C)Oc1cc2nc([C@H]3CC[C@H](CN4CCC(c5ccc6c(c5)n(C)c(=O)n6C5CCC(=O)NC5=O)CC4)CC3)cn2cc1C(=O)Nc1cccn([C@H]2C[C@H]2F)c1=O (some centres unmarked) [I-37] | < 10 |

| Compound | DC50 [nM] |
| --- | --- |
| COc1cc2nn([C@H]3CC[C@H](CN(C)[C@H]4CCN(c5cccc6c5n(C)c(=O)n6C5CCC(=O)NC5=O)C[C@H]4F)CC3)cc2cc1NC(=O)c1cccc(C(F)(F)F)n1 (some centres unmarked) [I-82] | < 10 |
| Cn1c(=O)n(C2CCC(=O)NC2=O)c2cccc([C@@H]3CCN(C[C@H]4CC[C@H](c5nc6ccc(NC(=O)c7cncc(C(F)(F)F)n7)cc6o5)CC4)C[C@H]3F)c21 (some centres unmarked) [I-295] | > 200 |
| Cc1nn([C@H]2CCC(=O)NC2=O)c2cccc(N3CC(CN4CCN(C[C@H]5CC[C@H](n6cc(NC(=O)c7cnn8ccc(N9C[C@H]%10C[C@@H]9CO%10)nc78)c(C(F)F)n6)CC5)CC4)C3)c12 [I-88] | < 10 |
| CN(C[C@H]1CC[C@H](c2cn3cc(NC(=O)c4cncc(C(F)(F)F)n4)c(C(C)(C)O)cc3n2)CC1)[C@@H]1CCN(c2cccc3c2n(C)c(=O)n3C2CCC(=O)NC2=O)C[C@H]1F (single isomer, unassigned) [I-334] | < 10 |
| Cc1nn(C2CCC(=O)NC2=O)c2cccc(N3CC(CO[C@@H]4CCN(C[C@H]5CC[C@H](n6cc(NC(=O)c7cnn8ccc(N9C[C@H]%10C[C@@H]9CO%10)nc78)c(C(F)F)n6)CC5)C[C@@H]4F)C3)c12 (some centres unmarked) [I-56] | < 10 |
| COc1cc2nc([C@H]3CC[C@H](CN4CC[C@@H](c5cccc6c5n(C)c(=O)n6C5CCC(=O)NC5=O)[C@H](F)C4)CC3)cn2cc1NC(=O)c1cncc(C#N)c1 (some centres unmarked) [I-198] | > 200 |
| COc1cc2nc([C@H]3CC[C@H](CN4CC[C@@H](c5cccc6c5n(C)c(=O)n6C5CCC(=O)NC5=O)[C@H](F)C4)CC3)oc2cc1NC(=O)c1cccc(C(F)(F)F)n1 (single isomer, unassigned) [I-121] | 10 to 100 |
| Cn1c(NC(=O)c2cccc(C(F)(F)F)n2)cc2cn([C@H]3CC[C@H](CN4CC[C@H](c5cccc6c5n(C)c(=O)n6C5CCC(=O)NC5=O)[C@@H](F)C4)CC3)nc2c1=O (some centres unmarked) [I-43] | > 200 |
| Cc1nn(C2CCC(=O)NC2=O)c2ccc(F)c(N3CC(CN4CCN(C[C@H]5CC[C@H](n6cc(NC(=O)c7cnn8ccc(N9C[C@H]%10C[C@@H]9CO%10)nc78)c(C(F)F)n6)CC5)CC4)C3)c12 (some centres unmarked) [I-287] | < 10 |
| COc1cc2nn([C@H]3CC[C@H](CN4CCN(c5cccc6c5c(C)nn6C5CCC(=O)NC5=O)CC4)CC3)cc2cc1NC(=O)c1cncc(C#N)c1 (some centres unmarked) [I-48] | 10 to 100 |
| C[C@H]1CN(c2ccn3ncc(C(=O)Nc4cn([C@H]5CC[C@H](CN(C)[C@H]6CCN(c7cccc8c7n(C)c(=O)n8C7CCC(=O)NC7=O)C[C@@H]6F)CC5)nc4C(F)F)c3n2)CCO1 (some centres unmarked) [I-25] | < 10 |
| O=C1CCC(Nc2ccc(N3CC(CN4CCN(C[C@H]5CC[C@H](n6cc(NC(=O)c7cnn8ccc(N9C[C@H]%10C[C@@H]9CO%10)nc78)c(C(F)F)n6)CC5)CC4)C3)cc2)C(=O)N1 (some centres unmarked) [I-61] | 10 to 100 |
| CN(C[C@H]1CC[C@H](n2cc3cc(NC(=O)c4cccc(C(F)(F)F)n4)ncc3n2)CC1)[C@H]1CCN(c2cccc3c2n(C)c(=O)n3C2CCC(=O)NC2=O)C[C@H]1F (some centres unmarked) [I-34] | < 10 |
| Cn1c(=O)n(C2CCC(=O)NC2=O)c2cccc([C@@H]3CCN(C[C@H]4CC[C@H](n5cc6cc(NC(=O)c7coc(C(F)(F)F)n7)ccc6n5)CC4)C[C@H]3F)c21 (some centres unmarked) [I-165] | < 10 |
| Cn1c(=O)n(C2CCC(=O)NC2=O)c2cccc([C@@H]3CCN(C[C@H]4CC[C@H](n5cc6cc(NC(=O)c7cccc(C(F)(F)F)n7)ccc6n5)CC4)C[C@H]3F)c21 (single isomer, unassigned) [I-12] | < 10 |
| O=C1CCC(c2noc3c(NC(=O)CN4CCN(C[C@H]5CC[C@H](n6cc7cc(NC(=O)c8cccc(C(F)(F)F)n8)ncc7n6)CC5)CC4)cccc23)C(=O)N1 (some centres unmarked) [I-71] | 10 to 100 |
